Results: PMC7447632, “Highly functionalized β-lactams and 2-ketopiperazines as TRPM8 antagonists with antiallodynic activity” (Scientific Reports, 2020)
Entries after “also recorded” stand apart in the source; their conditions may differ.

Columns and labels:
rTRPM8 = biological target: T1, rTRPM8 (Rattus norvegicus, UniProt Q8R455); assay: Patch-clamp electrophysiology, whole cell, HEK293 cells expressing rTRPM8; assay type: cell-based; conditions: for IC50: Patch-clamp, holding potential -60 mV, read-out: IC50 TRPM8 current blockade; for Hill coefficient n: fit of concentration-response curve, -60 mV
T1 construct: expressed in transfected cells; host or cells: HEK293 (stably transfected)
T1 sequence (Q8R455 whole entry): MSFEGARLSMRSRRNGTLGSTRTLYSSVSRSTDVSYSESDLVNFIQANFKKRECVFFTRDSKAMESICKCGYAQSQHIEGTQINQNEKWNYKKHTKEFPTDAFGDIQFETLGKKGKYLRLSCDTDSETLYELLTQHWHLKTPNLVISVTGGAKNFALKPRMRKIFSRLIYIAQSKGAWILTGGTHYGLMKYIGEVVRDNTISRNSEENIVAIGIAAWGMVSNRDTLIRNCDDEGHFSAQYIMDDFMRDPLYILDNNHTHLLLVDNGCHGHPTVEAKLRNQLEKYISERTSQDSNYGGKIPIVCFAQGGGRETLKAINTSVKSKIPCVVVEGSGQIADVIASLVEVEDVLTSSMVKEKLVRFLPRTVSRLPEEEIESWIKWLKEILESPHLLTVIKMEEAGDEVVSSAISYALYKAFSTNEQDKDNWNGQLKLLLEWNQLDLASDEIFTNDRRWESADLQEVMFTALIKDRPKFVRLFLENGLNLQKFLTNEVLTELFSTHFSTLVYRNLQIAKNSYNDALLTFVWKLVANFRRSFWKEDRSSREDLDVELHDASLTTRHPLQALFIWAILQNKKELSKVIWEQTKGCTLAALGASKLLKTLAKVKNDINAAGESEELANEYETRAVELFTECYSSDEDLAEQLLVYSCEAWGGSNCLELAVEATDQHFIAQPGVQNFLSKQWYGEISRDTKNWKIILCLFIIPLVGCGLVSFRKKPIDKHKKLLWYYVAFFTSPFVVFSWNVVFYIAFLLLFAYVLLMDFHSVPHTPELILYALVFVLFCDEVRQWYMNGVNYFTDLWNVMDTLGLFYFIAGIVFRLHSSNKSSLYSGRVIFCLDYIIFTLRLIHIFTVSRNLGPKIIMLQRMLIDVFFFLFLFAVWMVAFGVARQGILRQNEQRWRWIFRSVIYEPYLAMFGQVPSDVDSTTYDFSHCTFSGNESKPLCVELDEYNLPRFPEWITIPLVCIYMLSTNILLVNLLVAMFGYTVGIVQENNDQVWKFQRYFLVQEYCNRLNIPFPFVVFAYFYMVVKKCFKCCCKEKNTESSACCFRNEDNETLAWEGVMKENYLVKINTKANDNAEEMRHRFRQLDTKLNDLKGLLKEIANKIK
Excerpt: The TRPM8 antagonist activity of the enantiopure β-lactams 24a and 29a was further confirmed electrophysiologically by Patch-clamp experiments, using the whole cell configuration in HEK293 cells expressing TRPM8 channels.
The dose–response curve for both compounds was obtained at a holding potential of -60 mV (Supplementary Fig. S4).
Figure 2 Compounds 24a and 29a block TRPM8-mediated responses evoked by menthol in rTRPM8-expressing HEK293 cells. (A, C). I–V curves obtained in HEK293 cells expressing TRPM8 and exposed to vehicle solution (Vehicle; black trace; A,C), 100 µM menthol (red trace; A,C), 100 µM menthol + 10 µM 24a (blue trace; A) or to 100 µM menthol + 10 µM compound 29a (blue trace; C) (B,D), Concentration − response curves for TRPM8 current blockade by compound 24a (B) or compound 29a (D) at a holding voltage of -60 mV. Peak current data were expressed as pA/pF (to facilitate comparison among cells of different size) and expressed as a function of antagonist concentrations. The solid lines represent fits of the experimental data to the following binding isotherm: y = max/(1 + x/EC50)n, where x is the drug concentration and n the Hill coefficient. The fitted values for n were 0.97 ± 0.05 or 0.98 ± 0.6 for compound 24a or 29a, respectively. Each point is the mean ± SD of 8 (for compound 24a) or 9 (for compound 29a) determinations, each obtained in different cells. TEXT PRINTED IN THE PICTURE: (B) 24a: IC50=1,4±1,1 μM | (D) 29a: IC50=0,8±1,2 μM
Electrophysiological recording was carried out 1–3 days after cells seeded. Membrane currents and voltages were recorded by patch clamp using the whole-cell configuration. For whole-cell recordings of HEK-rTRPM8 cells, pipette solution contained (in mM) 150 NaCl, 5 EGTA, 3 MgCl2 and 10 HEPES, adjusted to pH 7.2 with NaOH, and bath solution contained (in mM) 150 NaCl, 6 CsCl, 1.5 CaCl2, 1 MgCl2, 10 D-glucose and 10 HEPES, adjusted to pH 7.4 with NaOH. Data were sampled at 10 kHz (EPC10 amplifier with PatchMaster 2.53 software, HEKA Electronics, Lambrecht, Germany) and low-pass filtered at 3 kHz for analysis (PatchMaster 2.53 and GraphPad Prism 5, Graphpad Software, USA). The series resistance was < 10 MΩ and to minimize voltage errors was compensated to 60–80%. All measurements were performed at 24–25 °C. The TRPM8 response was quantified as the ratio P2/P1, being P2 the second menthol pulse in the presence of the vehicle or antagonist tested, and P1 refers to the first menthol pulse. This paradigm considers the extend of receptor desensitization as the P2/P1 obtained with the vehicle. Thus, the estimated IC50 values are corrected from receptor desensitization.

[1] = test system: oxaliplatin-induced cold allodynia; assay: Oxaliplatin-induced cold allodynia in mice (acetone test); assay type: in vivo; conditions: for Cold allodynia (cold-induced paw licking, acetone test): oxaliplatin-treated male mice
Excerpt: Several chemotherapeutic agents in first clinical line induce peripheral neuropathies (known as CIPN), affecting million patients worldwide and limiting the dose administered to them, as well as the quality of life of many survivors. In oxaliplatin CIPN, the increased sensitivity to cold has been correlated to an augmented expression of TRPM8 channels, among others[4]–[6],[57]. In good correlation, there are recent experimental evidences describing that TRPM8 antagonists are able to decrease oxaliplatin-induced allodynia and cold hypersensitivity[34],[58]. According to these discoveries, we decided to explore the effects of β-lactam 24a in an in vivo model of oxaliplatin CIPN, using acetone assay for monitoring cold allodynia. In male mice, the injection of oxaliplatin on days 1, 3 and 5 at a 6 mg/kg dose produces peripheral cold allodynia.
Figure 4 Effects of compound 24a on the oxaliplatin-induced cold allodynia (acetone test). Male mice were treated with oxaliplatin (6 mg/Kg, ip) or vehicle on days 1, 3 and 5. Then, compound 24a (1 µg/ipl, A or 3 µg/ipl, B) was administered to the oxaliplatin treated animals, and the time-course of cold allodynia was measured. Data are given ± SME (n = 5). **P < 0.05; ***P < 0.001; ****P < 0.0001.
Male C57-mice (≈30 g) (Harlam, Holland) were used for the study. All experiments were approved by the Institutional Animal and Ethical Committee of the Universidad Miguel Hernandez where experiments were conducted and they were in accordance with the guidelines of the Economic European Community and the Committee for Research and Ethical Issues of the International Association for the Study of Pain. All parts of the study concerning animal care were performed under the control of veterinarians.
As previously described, oxaliplatin (Tocris) was dissolved in water with gentle warming and was […] injected on days 1, 3 and 5 at a 6 mg/kg dose. The day 7 after administration, experiments were performed. Together with Oxaliplatin injection, saline and a 5% Mannitol solution were intraperitoneally injected to prevent kidney damage and dehydration. The compound 24a stock was prepared in DMSO (Sigma-Aldrich) and diluted in saline for injections. Compound at different doses (1 to 3 μg) was injected into the plantar surface (25 μL) of the right hind paw of mice. Cold chemical thermal sensitivity was assessed using acetone drop method. Mice were placed in a metal mesh cage and allowed to habituate for approximately 30 min in order to acclimatize them. […] Cold chemical sensitive reaction with respect to paw licking was recorded as a positive response (nociceptive pain response). The responses were measured for 20-s with a digital stopwatch. For each measurement, the paw was sampled twice and the mean was calculated. […]

[2] = test system: MDA-MB-231 (breast adenocarcinoma); assay: SRB cytotoxicity assay, MDA-MB-231; assay type: cell-based; conditions: at 10 µg/mL

**Q.** For `C[C@@H]1C(=O)N(C[C@H](Cc2ccccc2)NC(=O)OCc2ccccc2)[C@]1(Cc1ccccc1)C(=O)OCc1ccccc1` [Compound 24a, 4S-Benzyl-4-benzyloxycarbonyl-3S-methyl-1-[(2′S-benzyloxycarbonylamino-3′-phenyl)prop-1′-yl]-2-oxoazetidine], which “Effect on menthol-mediated TRPM8 activity (I-V curve)” value (rTRPM8; 10 µM compound, 100 µM menthol, +120 mV) is on record?
**A.** important reduction on the menthol-mediated TRPM8 activity

**Q.** And the IC50 (rTRPM8; 100 µM menthol)?
**A.** 1400 nM

**Q.** What about the Hill coefficient n (rTRPM8) of the same compound?
**A.** 0.97 ± 0.05

**Q.** And the “Cold allodynia (cold-induced paw licking, acetone test)” value ([1]; 1 μg intraplantar)?
**A.** attenuates the cold-induced paw licking in a significant manner

**Q.** And the “Cold allodynia (cold-induced paw licking, acetone test)” value ([1]; 3 µg intraplantar)?
**A.** clearly increased at 15 min, and firmly maintained up to 60 min

**Q.** What about the “Time of maximum antiallodynic activity” value ([1]; intraplantar, after administration) of the same compound?
**A.** 30 to 60 min

**Q.** What about the “Antiallodynic effect in oxaliplatin-induced peripheral neuropathy” value ([1]; mice, dose not stated) of the same compound?
**A.** significantly reduced cold allodynia; also recorded: significant antiallodynic effects

**Q.** And the “Cytotoxic activity against MDA-MB-231” value [2]?
**A.** no activity

**Q.** Which IC50 (rTRPM8; 100 µM menthol) does the source give for `C[C@@H]1C(=O)N(C[C@@H](Cc2ccccc2)NC(=O)OCc2ccccc2)[C@]1(Cc1ccccc1)C(=O)OCc1ccccc1` [Compound 29a, 4S-Benzyl-4-benzyloxycarbonyl-3S-methyl-1-[(2′R-benzyloxycarbonylamino-3′-phenyl)prop-1′-yl]-2-oxoazetidine] here?
**A.** 800 nM

**Q.** What about the Hill coefficient n (rTRPM8) of the same compound?
**A.** 0.98 ± 0.6
